According to US11590139B2, “Substituted aminopurine compounds, compositions thereof, and methods of treatment therewith” (Signal Pharmaceuticals, LLC, priority 2014, dated 2023):
Read-outs that look alike come from different tables or passages of the source.

Tested on: Lox-IMVI melanoma cell line
Test: Lox-IMVI anti-proliferative assay (growth inhibition, Cell Titer-Glo)
Type: cell-based, human
Outline: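 Viability read by ATP luminescence (Cell Titer-Glo) at t0 and after 72 h at 37 °C, 5% CO2, with normalisation to DMSO-treated cells. Compound tested at 0.5 nM–10 μM in 3-fold, 10-point series (0.2% DMSO final) on Lox-IMVI in RPMI+10% FBS; IC50 by 4-parameter sigmoidal fit.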

[1] = Homo sapiens, IC50 activity level in the cell-based Lox-IMVI anti-proliferative assay, read-out: Activity
[2] = Homo sapiens, Lox-IMVI melanoma cell line, anti-proliferative assay, read-out: Activity (IC50 activity level)
[3] = Homo sapiens, Lox-IMVI anti-proliferative assay, IC50 activity level, read-out: Activity

IC50 [1] [nM] | IC50 [2] [nM] | Compound | further results
> 1000 | – | NC(=O)[C@H]1CC[C@@H](n2c(Nc3c(F)cc(Cl)cc3F)nc3cnc(NC4CCS(=O)(=O)CC4)nc32)CC1 [Example 156, (1s,4s)-4-(8-((4-chloro-2,6-difluorophenyl)amino)-2-((1,1-dioxidotetrahydro-2H-thiopyran-4-yl)amino)-9H-purin-9-yl)cyclohexane-1-carboxamide] | –
– | 500 to 1000 | CS(=O)(=O)N1CCC[C@@H](Nc2ncc3nc(Nc4c(F)cc(Cl)cc4Cl)n([C@H]4CC[C@@H](C(N)=O)CC4)c3n2)C1 [Example 701, (1S,4s)-4-(8-(2,4-dichloro-6-fluorophenylamino)-2-((R)-1-(methylsulfonyl)piperidin-3-ylamino)-9H-purin-9-yl)cyclohexanecarboxamide] | –
> 1000 | – | NC(=O)[C@H]1CC[C@@H](n2c(Nc3c(F)cc(F)cc3F)nc3cnc(NC4CC(F)(F)C4)nc32)CC1 [Example 226, (1s,4s)-4-(2-(3,3-difluorocyclobutylamino)-8-(2,4,6-trifluorophenylamino)-9H-purin-9-yl)cyclohexanecarboxamide] | –
< 250 | – | NC(=O)[C@H]1CC[C@@H](n2c(Nc3c(F)cc(Cl)cc3Cl)nc3cnc(NC4CCC(F)(F)CC4)nc32)CC1 [Example 186, (1s,4s)-4-(8-(2,4-dichloro-6-fluorophenylamino)-2-(4,4-difluorocyclohexylamino)-9H-purin-9-yl)cyclohexanecarboxamide] | –
> 1000 | – | C[C@@H](O)CNc1ncc2nc(Nc3c(Cl)cc(Cl)cc3Cl)n([C@H]3CC[C@@H](C(N)=O)CC3)c2n1 [Example 152, (1S,4s)-4-(2-((R)-2-hydroxypropylamino)-8-(2,4,6-trichlorophenylamino)-9H-purin-9-yl)cyclohexanecarboxamide] | –
> 1000 | – | Cc1cc(Cl)c(Nc2nc3cnc(NC4CCOCC4)nc3n2[C@H]2CC[C@@H](C(N)=O)CC2)c(Cl)c1 [Example 116, (1s,4s)-4-(8-(2,6-dichloro-4-methylphenylamino)-2-(tetrahydro-2H-pyran-4-ylamino)-9H-purin-9-yl)cyclohexanecarboxamide] | –
> 1000 | – | NC(=O)[C@H]1CC[C@@H](n2c(Nc3cc(F)c(Cl)cc3F)nc3cnc(N[C@@H]4CCC[C@H](O)C4)nc32)CC1 [Example 363, (1S,4s)-4-(8-(4-chloro-2,5-difluorophenylamino)-2-((1R,3S)-3-hydroxycyclohexylamino)-9H-purin-9-yl)cyclohexanecarboxamide] | –

Second part, the compound before the results:

Compound | IC50 [1] [nM] | IC50 [2] [nM] | further results
C[C@@H](CO)Nc1ncc2nc(Nc3ccc(C#N)c(Cl)c3Cl)n([C@H]3CC[C@@H](C(N)=O)CC3)c2n1 [Example 694, (1R,4s)-4-(8-(2,3-dichloro-4-cyanophenylamino)-2-((S)-1-hydroxypropan-2-ylamino)-9H-purin-9-yl)cyclohexanecarboxamide] | – | > 1000 | –
NC(=O)[C@H]1CC[C@@H](n2c(Nc3c(F)cc(F)cc3F)nc3cnc(N[C@H]4CCCC[C@H]4O)nc32)CC1 [Example 512, (1R,4s)-4-(2-((1S,2R)-2-hydroxycyclohexylamino)-8-(2,4,6-trifluorophenylamino)-9H-purin-9-yl)cyclohexanecarboxamide] | – | – | IC50 [3]: > 1000 nM
C[C@@H](CO)Nc1ncc2nc(Nc3c(F)cc(Cl)cc3Cl)n([C@H]3CC[C@@](C)(C(N)=O)CC3)c2n1 [Example 547, (1R,4s)-4-(8-(2,4-dichloro-6-fluorophenylamino)-2-((S)-1-hydroxypropan-2-ylamino)-9H-purin-9-yl)-1-methylcyclohexanecarboxamide] | – | – | IC50 [3]: < 250 nM
C[C@]1(C(N)=O)CC[C@H](n2c(Nc3c(F)cc(F)cc3Cl)nc3cnc(NC4CCC(F)(F)CC4)nc32)CC1 [Example 477, (1r,4r)-4-(8-(2-chloro-4,6-difluorophenylamino)-2-(4,4-difluorocyclohexylamino)-9H-purin-9-yl)-1-methylcyclohexanecarboxamide] | – | – | IC50 [3]: > 1000 nM
C[C@]1(C(N)=O)CC[C@@H](n2c(Nc3c(F)cc(F)cc3Cl)nc3cnc(N[C@@H]4CCOC[C@H]4F)nc32)CC1 [Example 715, (1S,4s)-4-(8-(2-chloro-4,6-difluorophenylamino)-2-((3S,4R)-3-fluorotetrahydro-2H-pyran-4-ylamino)-9H-purin-9-yl)-1-methylcyclohexanecarboxamide] | – | < 250 | –
NC(=O)[C@H]1CC[C@@H](n2c(Nc3c(Cl)cc(Cl)cc3Cl)nc3cnc(N[C@@H]4CCCC[C@H]4O)nc32)CC1 [Example 468, (1S,4s)-4-(2-((1R,2R)-2-hydroxycyclohexylamino)-8-(2,4,6-trichlorophenylamino)-9H-purin-9-yl)cyclohexanecarboxamide] | – | – | IC50 [3]: > 1000 nM
CC(C)Nc1ncc2nc(Nc3c(F)cc(C#N)cc3F)n([C@H]3CC[C@@H](C(N)=O)CC3)c2n1 [Example 441, (1s,4s)-4-(8-(4-cyano-2,6-difluorophenylamino)-2-(isopropylamino)-9H-purin-9-yl)cyclohexanecarboxamide] | – | – | IC50 [3]: 500 to 1000 nM
NC(=O)[C@H]1CC[C@@H](n2c(Nc3c(Cl)cc(OC(F)(F)F)cc3Cl)nc3cnc(NC4CCOCC4)nc32)CC1 [Example 365, (1s,4s)-4-(8-(2,6-dichloro-4-(trifluoromethoxy)phenylamino)-2-(tetrahydro-2H-pyran-4-ylamino)-9H-purin-9-yl)cyclohexanecarboxamide] | < 250 | – | –
CCN1CCC[C@@H](Nc2ncc3nc(Nc4c(Cl)cc(Cl)cc4Cl)n([C@H]4CC[C@@H](C(N)=O)CC4)c3n2)C1 [Example 732, (1S,4s)-4-(2-((R)-1-ethylpiperidin-3-ylamino)-8-(2,4,6-trichlorophenylamino)-9H-purin-9-yl)cyclohexanecarboxamide] | – | > 1000 | –
(R)-methyl 3-(9-((1s,4S)-4- carbamoylcyclohexyl)-8-(2,3,4- trifluorophenylamino)-9H-purin-2- ylamino)piperidine-1-carboxylate [Example 414] | – | – | IC50 (Lox-IMVI anti-proliferative assay, IC50 activity level, read-out: Activity): > 1000 nM
C[C@]1(C(N)=O)CC[C@@H](n2c(Nc3c(F)cc(Cl)cc3Cl)nc3cnc(NC4CCOCC4)nc32)CC1 [Example 674, (1s,4s)-4-(8-(2,4-dichloro-6-fluorophenylamino)-2-(tetrahydro-2H-pyran-4-ylamino)-9H-purin-9-yl)-1-methylcyclohexanecarboxamide] | – | < 250 | –
C[C@]1(C(N)=O)CC[C@@H](n2c(Nc3c(Cl)cc(C#N)cc3Cl)nc3cnc(N[C@@H]4CC[C@@H](O)C4)nc32)CC1 [Example 641, (1S,4s)-4-(8-(2,6-dichloro-4-cyanophenylamino)-2-((1R,3R)-3-hydroxycyclopentylamino)-9H-purin-9-yl)-1-methylcyclohexanecarboxamide] | – | < 250 | –
